# Data taken from patent publication US7449495B2, “Retinoid derivatives with antiangiogenic, antitumoral and proapoptotic activities” (Sigma-Tau Industrie Farmaceutiche Riunite S.p.A., priority 2001, dated 2008).
# Tests used:
# [1] = test system: A2780/Dx multidrug-resistant human ovarian carcinoma cells; assay: Cytotoxicity in combination with TRAIL, A2780/Dx; type: cell-based; conditions: 72 hours, value >1 synergism (FIG. 1)
# Description: FIG. 1 is a graph showing the interaction between ST1926 and TRAIL in A2780/Dx multidrug-resistant human ovarian carcinoma cells at different concentrations of TRAIL.
# A study of cytotoxicity of ST1926 in combination with TRAIL was performed in two different tumor cell lines such as M109 murine lung carcinoma and A2780/Dx multidrug-resistant human ovarian carcinoma. Cells were maintained in RPMI 1640 medium containing 10% FCS, 1% sodium pyruvate and 1% glutamine.
# The cells were seeded in a volume of 250 μl in 96 well plates and incubated for 24 hours at 37° C. The following day, test compound ST 1926 [(2E)-3-[3′-(1-Adamantyl)-4′-hydroxy[1,1′-biphenyl]-4-yl]-2-propenoate/ic acid] or TRAIL were added at increasing concentrations, and the cells were incubated for a further 72 hours at 37° C. in a humidified atmosphere containing 5% CO2. On the 5th day, the supernatant was removed by upturning the plates. 200 μl of PBS and 50 μl of cold, 80% TCA were added. The plates were then left to incubate on ice for at least 1 hour. The TCA was removed by upturning; the plates were washed three times by immersion in distilled water and dried first on paper, then with a jet of hot air. […] The optical density was measured using a Multiskan spectrophotometer at 540 nm.
# The interaction between ST1926 and TRAIL was determined by using the analysis of Drewinko et al. (Cancer Biochem. Biophys. 1: 187-195, 1976). […]
# [2] = test system: human no small cell lung carcinoma NCI-H460; assay: Antitumoral activity in human no small cell lung carcinoma model NCI-H460; type: in vivo; conditions: NCI-H460, 15 mg/kg po
# Description: The ST1926 solution was prepared immediately before use and solubilised in cremophor:ethanol 1:1 and subsequently diluted 1:4 in buffered saline solution. The animal treatments were administered in a volume of 10 ml/kg. […] Measurements of tumor dimensions were performed using a digital calliper (Vernier Caliper) twice weekly, from the time in which the mass was measurable. The tumor mass was evaluated from the size of the two principal dimensions (length and breadth), expressed in mm, applying the formula (length×breadth^2)/2, that is, the tumor volume in mm3. For each experimental group, the percentage of tumor volume inhibition was calculated (TVI %), with respect to the control, namely (100−(T/C %). TVI was evaluated 2 days after the final administration of ST1926.
# A comparison between the TVI values obtained for each group was performed using the non parametric Mann Whitney test for non-paired data, using the Instat software from GraphPad inc.
# [3] = test system: Human Promyelocytic Leukaemia NB4 Cells; assay: Cyto-fluorometric cell cycle analysis, NB4; type: cell-based; conditions: 3 days; for G0/G1 / G2 + M / S: percentage of cell cycle phase
# Description: To evaluate the effect of the compound according to the invention, on various phases of the cell cycle, cyto-fluorometric cell cycle analyses were performed.
# HL60 or NB4 cells were seeded onto plates at a density of 150.000 cells/ml in RPMI 1640 medium containing 10% FCS, the test compound (ST 1926) was added, solubilised in 0.1% DMSO at concentrations of between 0.01 and 0.1 μM, in the presence or absence of sub-optimal doses of ATRA (5-10 nM for NB4 and 0.5 μM for HL60) in the dark and placed in an incubator for 3 days without changing the culture medium.
# On the third day of treatment 500.000 cells were sampled, centrifuged at 180×g for 5 minutes, washed twice in calcium and magnesium free PBS. The cells (1×10^6/ml of fixative) were fixed for at least 1 hour in a fixation mixture comprised of acetone/methanol 1:4 v/v maintained at −20° C. and 50% of calcium and magnesium free PBS; then the cells were centrifuged, washed in calcium and magnesium free PBS, and again centrifuged and washed. The cellular precipitate was incubated for 30 minutes in the dark at room temperature with 200 μl of […] (100 μg/ml) and 200 μl of RNAse (150 KU/mg).
# The samples with filtered through nylon filters (60-80 μm diameter) and analysed by cyto-fluorimeter FACScan (Becton Dickinson), acquiring 20000 events/sample, at an excitation wavelength of 488 nm and emission wavelength of 620 nm. The analysis of the percentages of the cell cycle phases was performed using a dedicated software package, Modfit v. 2.0 (Becton Dickinson).
# [4] = test system: ornithine decarboxylase in mouse epidermis; conditions: in vivo; cited from earlier work
smiles,measurement,setting,value
"O=C(O)/C=C/c1ccc(-c2ccc(O)c(C34CC5CC(CC(C5)C3)C4)c2)cc1 [ST1926, E-4-(3-(1-adamantyl)-4-hydroxyphenyl)cinnamic acid]",interaction between ST1926 and TRAIL (analysis of Drewinko et al.),[1],synergic activity
same,BWL % Max,[2]; qdx3x3w,4%
same,Lethality,[2]; qdx3x3w,0/8
same,TVI % ± SE,[2]; qdx3x3w,*52 ± 7%
same,BWL % Max,[2]; qdx4x3w,14%
same,Lethality,[2]; qdx4x3w,0/8
same,TVI % ± SE,[2]; qdx4x3w,**38 ± 8%
same,BWL % Max,[2]; qdx5x3w,4%
same,Lethality,[2]; qdx5x3w,0/8
same,TVI % ± SE,[2]; qdx5x3w,*40 ± 2%
same,APOPTOSIS,"[3]; NB4, 0.01 μM",19.9
same,G0/G1,"[3]; NB4, 0.01 μM",48.4
same,G2 + M,"[3]; NB4, 0.01 μM",12.8
same,S,"[3]; NB4, 0.01 μM",38.8
same,APOPTOSIS,"[3]; NB4, 0.02 μM",28.4
same,G0/G1,"[3]; NB4, 0.02 μM",48.2
same,G2 + M,"[3]; NB4, 0.02 μM",12.4
same,S,"[3]; NB4, 0.02 μM",39.4
same,APOPTOSIS,"[3]; NB4, 0.04 μM",33.9
same,G0/G1,"[3]; NB4, 0.04 μM",51.3
same,G2 + M,"[3]; NB4, 0.04 μM",13.0
same,S,"[3]; NB4, 0.04 μM",35.7
same,APOPTOSIS,"[3]; NB4, 0.08 μM",45.0
same,G0/G1,"[3]; NB4, 0.08 μM",41.4
same,G2 + M,"[3]; NB4, 0.08 μM",5.0
same,S,"[3]; NB4, 0.08 μM",53.6
same,APOPTOSIS,"[3]; NB4, 0.1 μM",53.6
same,G0/G1,"[3]; NB4, 0.1 μM",50.6
same,G2 + M,"[3]; NB4, 0.1 μM",3.3
same,S,"[3]; NB4, 0.1 μM",46.1
same,effect on the cell cycle of NB4 (in words),"[3]; NB4, 0.08 and 0.1 μM",induces growth arrest in the duplication S phase of the cycle and apoptosis
same,activity in the ODC assay compared with compound 1 (in words),[4],lower activities
